Experiment [1] deals with S6RP serine-240/244 phosphorylation. The experiment is described as follows: In vitro Phospho-S6 cellular assay (pS6RP S240/244) in HEK293T/17 cells. The class given is cell-based. The note with it: Homo sapiens, 2 hours, read-out: pS6 IC50. In a few lines: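 Compounds were tested at eight concentrations on adhered HEK293T/17 cells for 2 h at 37 °C (2% FCS, 0.1% DMSO), at 80,000 cells/well for pAkt S473 and 40,000 for pS6RP S240/244. Lysates were captured on phospho-specific antibody MSD plates with Sulfo-Tag detection. Values came from nonlinear variable-slope regression.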

Experiment [2] relates to Akt serine-473 phosphorylation. The experiment is described as follows: In vitro Phospho-Akt cellular assay (pAkt S473) in HEK293T/17 cells. The class given is cell-based. The note with it: Homo sapiens, 2 hours. The source says:
Activation of mTOR signaling results in phosphorylation of several downstream targets. In cells, mTOR exists in two different protein complexes. The mTOR Complex-1 (mTORC1) phosphorylates and activates S6 Kinase 1 (S6K1) and S6 Kinase 2 (S6K2) (also known as p70S6K) which then phosphorylate S6 Ribosomal Protein (S6RP) (also known as RPS6)3. S6RP is phosphorylated on serine 235, serine 236, serine 240 and serine 244 by both pS6K1 and pS6K2. The mTOR Complex-2 (mTORC2) phosphorylates AKT on serine 473 which activates the AKT signaling pathway.
The assay measures a test compound's inhibition of S6RP serine-240/244 phosphorylation and inhibition of Akt serine-473 phosphorylation in human embryonic kidney derived HEK293T/17 cells (ATCC CRL-11268).
The HEK293T/17 cell line is maintained in DMEM media (Invitrogen catalogue number 41965-039) supplemented with 10% FCS at 37° C. in a 5% CO2 humidified incubator.
Cells are seeded in 96-well plates at 40,000 cells/well (pS6RP S240/244 assay) or 80,000 cells/well (pAkt S473 assay) in 90 μl growth media (DMEM, 2% FCS). Plates are incubated for 1 hour in a humidified incubator to allow the cells to adhere. Cells are treated with 8 concentrations of test compounds or DMSO alone for controls (final DMSO concentration 0.1%) and incubated at 37° C. for 2 hours. Then 20 μl of 5× concentrated lysis buffer (750 mM NaCl, 100 mM Tris pH7.4, 5 mM ADTA, 5 mM EGTA, 5% Triton X-100) is added, plates are sealed and incubated for 15 minutes at 4° C. with gentle shaking. After cell lysis, 25 μl cell lysate is transferred to a MesoScale plate coated with an antibody to pS6RP Ser240/244 (MesoScale Discovery K150DGD-3) or an antibody to pAkt Ser 473 (MesoScale Discovery K151DGD-3). Plates have been blocked before by incubation with 150 μl MesoScale Discovery Blocking Solution-A for 1 hour at room temperature followed by washing with 150 μl 1× Tris wash buffer per well. After the transfer of the cell lysate to the MSD plate, the pS6RP (or pAkt) protein is captured on the coated antibody by incubation at room temperature for 1 hour with gentle shaking. After the capture step the plate is washed three times with 150 μl of 1× Tris wash buffer per well. Then 25 μl detection antibody conjugated with a Sulfo-Tag is added and incubated for 1 hour at room temperature with gentle shaking. Subsequently the antibody solution is removed and the plate is washed 3 times with 150 μl×Tris wash buffer per well and 150 μl Read buffer is added. The plates are analysed on a MSD 2400 Plate Reader (MesoScale Discovery). Data analysis is performed using nonlinear regression for a sigmoidal dose-response with a variable slope.

Among the data in patent US8785457B2 (Cellzome Limited, priority 2009, dated 2014) are IC50 values, retold here.

As a reminder, the IC50 is the point on the concentration scale where inhibition reaches its midpoint. As for `CCNC(=O)Nc1ccc(-c2nc3c(c(N4CCOC[C@@H]4C)n2)CN(C(=O)OC)C3)c(F)c1` [Example 152, (S)-methyl 2-(4-(3-ethylureido)-2-fluorophenyl)-4-(3-methylmorpholino)-5H-pyrrolo[3,4-d]pyrimidine-6-(7H)-carboxylate], the results for the IC50 in experiment [1] and in experiment [2] were 0.093 µM and 0.049 µM, respectively.
For `C[C@H]1COCCN1c1nc(-c2ccc(NC(=O)NC3CC3)cc2)nc2c1CCN(CC1CC1)C2` [Example 40, (S)-1-cyclopropyl-3-(4-(7-(cyclopropylmethyl)-4-(3-methylmorpholino)-5,6,7,8-tetrahydropyrido[3,4-d]pyrimidin-2-yl)phenyl)urea], in that order: 0.07 µM and 0.043 µM.
The like results for `CCNC(=O)Nc1ccc(-c2nc3c(c(N4CCOCC4)n2)CN(C(=O)OC)C3)c(F)c1` [Example 162, methyl 2-(4-(3-ethylureido)-2-fluorophenyl)-4-morpholino-5H-pyrrolo[3,4-d]pyrimidine-6(7H)-carboxylate] were, in that order, 0.114 µM and 0.085 µM.
For `C[C@H]1COCCN1c1nc(-c2ccc(NC(=O)NC3CC3)cc2F)nc2c1CN(C(=O)N(C)C)C2` [Example 178, (S)-2-(4-(3-cyclopropylureido)-2-fluorophenyl)-N,N-dimethyl-4-(3-methylmorpholino)-5H-pyrrolo[3,4-d]pyrimidine-6(7H)-carboxamide], in that order: 0.163 µM and 0.052 µM.
Take `CC(C)N1Cc2nc(-c3ccc(NC(=O)NC4CC4)cc3F)nc(N3CCOC[C@@H]3C)c2C1` [Example 172, (S)-1-cyclopropyl-3-(3-fluoro-4-(6-isopropyl-4-(3-methylmorpholino)-6,7-dihydro-5H-pyrrolo[3,4-d]pyrimidin-2-yl)phenyl)urea]: the IC50 in experiment [1] amounted to 0.187 µM; in experiment [2], 0.101 µM.
The like results for `CCNC(=O)Nc1ccc(-c2nc3c(c(N4CCOC[C@@H]4C)n2)CN(C)C3)cc1` [Example 26, (S)-1-ethyl-3-(4-(6-methyl-4-(3-methylmorpholino)-6,7-dihydro-5H-pyrrolo[3,4-d]pyrimidin-2-yl)phenyl)urea] were, in that order, 0.196 µM and 0.068 µM.
The like results for `CCNC(=O)Nc1ccc(-c2nc3c(c(N4CCOC[C@@H]4C)n2)CN(C(=O)C(C)(C)C)C3)cc1` [Example 22, (S)-1-ethyl-3-(4-(4-(3-methylmorpholino)-6-pivaloyl-6,7-dihydro-5H-pyrrolo[3,4-d]pyrimidin-2-yl)phenyl)urea] were, in that order, 0.087 µM and 0.029 µM.
Consider `CCNC(=O)Nc1ccc(-c2nc3c(c(N4CCOC[C@@H]4C)n2)CCN(C(=O)C2CC2)C3)cc1` [Example 56, (S)-1-(4-(7-(cyclopropanecarbonyl)-4-(3-methylmorpholino)-5,6,7,8-tetrahydropyrido[3,4-d]pyrimidin-2-yl)phenyl)-3-ethylurea], for which the IC50 in experiment [1] was determined as 0.032 µM; in experiment [2] it was 0.019 µM.
The like results for `CCOC(=O)N1Cc2nc(-c3ccc(NC(=O)NC4CC4)cc3F)nc(N3CCOC[C@H]3C)c2C1` [Example 179, (R)-ethyl 2-(4-(3-cyclopropylureido)-2-fluorophenyl)-4-(3-methylmorpholino)-5H-pyrrolo[3,4-d]pyrimidine-6(7H)-carboxylate] were, in that order, 0.063 µM and 0.031 µM.
For `CCNC(=O)Nc1ccc(-c2nc3c(c(N4CCOC[C@@H]4C)n2)CCN(C)C3)cc1` [Example 35, (S)-1-ethyl-3-(4-(7-methyl-4-(3-methylmorpholino)-5,6,7,8-tetrahydropyrido[3,4-d]pyrimidin-2-yl)phenyl)urea], in that order: 0.037 µM and 0.014 µM.
Take `CN1Cc2nc(-c3ccc(NC(=O)NC4CC4)cc3F)nc(N3CCOCC3)c2C1` [Example 159, 1-(Cyclopropyl)-3-(3-fluoro-4-(6-methyl-4-morpholino-6,7-dihydro-5H-pyrrolo[3,4-d]pyrimidin-2-yl)phenyl)urea]: the figures for the IC50 in experiment [1] and in experiment [2] were 0.271 µM and 0.314 µM, respectively.
On to `COC(=O)N1Cc2nc(-c3ccc(NC(=O)NC4CC4)cc3F)nc(N3CCOCC3)c2C1` [Example 173, Methyl 2-(4-(3-cyclopropylureido)-2-fluorophenyl)-4-morpholino-5H-pyrrolo[3,4-d]pyrimidine-6(7H)-carboxylate], for which the results for the IC50 in experiment [1] and in experiment [2] were 0.172 µM and 0.049 µM, respectively.
As to `COC(=O)N1Cc2nc(-c3ccc(NC(=O)NC4CC4)cc3F)nc(N3CCOC[C@@H]3C)c2C1` [Example 146, (S)-methyl 2-(4-(3-cyclopropylureido)-2-fluorophenyl)-4-(3-methylmorpholino)-5H-pyrrolo[3,4-d]pyrimidine-6(7H)-carboxylate], the IC50 in experiment [1] worked out at 0.096 µM; in experiment [2], 0.041 µM.
The like results for `CCNC(=O)Nc1ccc(-c2nc3c(c(N4CCOC[C@@H]4C)n2)CCN(CC2CC2)C3)cc1` [Example 37, (S)-1-(4-(7-(cyclopropylmethyl)-4-(3-methylmorpholino)-5,6,7,8-tetrahydropyrido[3,4-d]pyrimidin-2-yl)phenyl)-3-ethylurea] were, in that order, 0.086 µM and 0.045 µM.
With `CCNC(=O)Nc1ccc(-c2nc3c(c(N4CCOC[C@@H]4C)n2)CCN(C(=O)N(C)C)C3)c(F)c1` [Example 176, (S)-2-(4-(3-ethylureido)-2-fluorophenyl)-N,N-dimethyl-4-(3-methylmorpholino)-5,6-dihydropyrido[3,4-d]pyrimidine-7(8H)-carboxamide], the IC50 is 0.076 µM in experiment [1] and 0.054 µM in experiment [2].
The like results for `CCOC(=O)N1Cc2nc(-c3ccc(NC(=O)NC4CC4)cc3F)nc(N3CCOCC3)c2C1` [Example 156, Ethyl 2-(4-(3-cyclopropylureido)-2-fluorophenyl)-4-morpholino-5H-pyrrolo[3,4-d]pyrimidine-6(7H)-carboxylate] were, in that order, 0.135 µM and 0.076 µM.
For `CC(C)N1CCc2c(nc(-c3ccc(NC(=O)NC4CC4)cc3)nc2N2CCOC[C@@H]2C)C1` [Example 43, (S)-1-cyclopropyl-3-(4-(7-isopropyl-4-(3-methylmorpholino)-5,6,7,8-tetrahydropyrido[3,4-d]pyrimidin-2-yl)phenyl)urea], in that order: 0.071 µM and 0.035 µM.
The like results for `CCNC(=O)Nc1ccc(-c2nc3c(c(N4CCOC[C@@H]4C)n2)CCN(C(=O)C(C)C)C3)cc1` [Example 57, (S)-1-ethyl-3-(4-(7-isobutyryl-4-(3-methylmorpholino)-5,6,7,8-tetrahydropyrido[3,4-d]pyrimidin-2-yl)phenyl)urea] were, in that order, 0.032 µM and 0.014 µM.
As for `CCNC(=O)Nc1ccc(-c2nc3c(c(N4CCOCC4)n2)CN(C(=O)OCC)C3)c(F)c1` [Example 151, Ethyl 2-(4-(3-ethylureido)-2-fluorophenyl)-4-morpholino-5H-pyrrolo[3,4-d]pyrimidine-6(7H)-carboxylate], the half-maximal inhibitory concentration (IC50) worked out at 0.153 µM in experiment [1] and 0.107 µM in experiment [2].
The like results for `CCNC(=O)Nc1ccc(-c2nc3c(c(N4CCOC[C@@H]4C)n2)CCN(CC)C3)cc1` [Example 27, (S)-1-ethyl-3-(4-(7-ethyl-4-(3-methylmorpholino)-5,6,7,8-tetrahydropyrido[3,4-d]pyrimidin-2-yl)phenyl)urea] were, in that order, 0.024 µM and 0.016 µM.
Regarding `C[C@H]1COCCN1c1nc(-c2ccc(NC(=O)NC3CC3)cc2F)nc2c1CCN(C(=O)N(C)C)C2` [Example 165, (S)-2-(4-(3-cyclopropylureido)-2-fluorophenyl)-N,N-dimethyl-4-(3-methylmorpholino)-5,6-dihydropyrido[3,4-d]pyrimidine-7(8H)-carboxamide], the IC50 came out at 0.045 µM in experiment [1] and 0.037 µM in experiment [2].
As for `CCNC(=O)N1Cc2nc(-c3ccc(NC(=O)NC4CC4)cc3)nc(N3CCOC[C@@H]3C)c2C1` [Example 33, (S)-2-(4-(3-cyclopropylureido)phenyl)-N-ethyl-4-(3-methylmorpholino)-5H-pyrrolo[3,4-d]pyrimidine-6(7H)-carboxamide], the IC50 in experiment [1] came to 0.379 µM; in experiment [2], 0.16 µM.
